Test results reported in article PMC9698773, “Design, Synthesis, Molecular Modeling, and Anticancer Evaluation of New VEGFR-2 Inhibitors Based on the Indolin-2-One Scaffold” (Pharmaceuticals, 2022).
“And” between values parts separate entries of the source, which are not always exact repeats. Identical values can stand only once.

Columns and labels:
caspase-3 = assay: Caspase-3 expression assay (quantitative real-time PCR); type: cell-based, human; details: HepG2, 1.13 µM, 24 h; control = 1
Description: The gene expression fold change of caspase-3 and -9 in the HepG2 cells treated with 1.13 µM of compound 17a for 24 h was determined using quantitative real-time PCR analysis.
The expression of caspase-3 and -9 in the liver HepG2 cells treated with 1.13 μM of 17a was determined using quantitative real-time PCR analysis, as presented in the Supplementary Materials.
Pharmaceuticals 2022, 15, x FOR PEER REVIEW 3 of 22
Figure S1. Simple linear regression for the correlation between cytotoxicity against HepG2 cell line […]
Figure S2. Simple linear regression for the correlation between cytotoxicity against MCF‐7 cell line […]
4.2.3. Cell cycle analysis
To determine the role of the synthesized compounds in cell cycle distribution, cell cycle analysis was performed using propidium iodide (PI) staining and flow cytometry analysis for compound 17a. […] The stained cells were measured using a BD FACSCalibur™ Flow Cytometer, and the data were analyzed using Flowing software (version 2.5.1, Turku Centre for Biotech‐ […]
Flow cytometry cell apoptosis analysis was used to investigate the apoptotic effect of the synthesized compounds. […] The stained cells were measured using a BD FACSCalibur™ Flow Cytometer and analyzed using Flowing software. […]
The expression of BAX and Bcl‐2 proteins were determined using Western blot anal‐ ysis. […]

VEGFR-2 = VEGFR-2 (Homo sapiens, UniProt P35968); assay: In vitro VEGFR-2 kinase inhibitory assay (VEGFR2 (KDR) Kinase Assay Kit)
Chain of VEGFR-2 (P35968 20-1356): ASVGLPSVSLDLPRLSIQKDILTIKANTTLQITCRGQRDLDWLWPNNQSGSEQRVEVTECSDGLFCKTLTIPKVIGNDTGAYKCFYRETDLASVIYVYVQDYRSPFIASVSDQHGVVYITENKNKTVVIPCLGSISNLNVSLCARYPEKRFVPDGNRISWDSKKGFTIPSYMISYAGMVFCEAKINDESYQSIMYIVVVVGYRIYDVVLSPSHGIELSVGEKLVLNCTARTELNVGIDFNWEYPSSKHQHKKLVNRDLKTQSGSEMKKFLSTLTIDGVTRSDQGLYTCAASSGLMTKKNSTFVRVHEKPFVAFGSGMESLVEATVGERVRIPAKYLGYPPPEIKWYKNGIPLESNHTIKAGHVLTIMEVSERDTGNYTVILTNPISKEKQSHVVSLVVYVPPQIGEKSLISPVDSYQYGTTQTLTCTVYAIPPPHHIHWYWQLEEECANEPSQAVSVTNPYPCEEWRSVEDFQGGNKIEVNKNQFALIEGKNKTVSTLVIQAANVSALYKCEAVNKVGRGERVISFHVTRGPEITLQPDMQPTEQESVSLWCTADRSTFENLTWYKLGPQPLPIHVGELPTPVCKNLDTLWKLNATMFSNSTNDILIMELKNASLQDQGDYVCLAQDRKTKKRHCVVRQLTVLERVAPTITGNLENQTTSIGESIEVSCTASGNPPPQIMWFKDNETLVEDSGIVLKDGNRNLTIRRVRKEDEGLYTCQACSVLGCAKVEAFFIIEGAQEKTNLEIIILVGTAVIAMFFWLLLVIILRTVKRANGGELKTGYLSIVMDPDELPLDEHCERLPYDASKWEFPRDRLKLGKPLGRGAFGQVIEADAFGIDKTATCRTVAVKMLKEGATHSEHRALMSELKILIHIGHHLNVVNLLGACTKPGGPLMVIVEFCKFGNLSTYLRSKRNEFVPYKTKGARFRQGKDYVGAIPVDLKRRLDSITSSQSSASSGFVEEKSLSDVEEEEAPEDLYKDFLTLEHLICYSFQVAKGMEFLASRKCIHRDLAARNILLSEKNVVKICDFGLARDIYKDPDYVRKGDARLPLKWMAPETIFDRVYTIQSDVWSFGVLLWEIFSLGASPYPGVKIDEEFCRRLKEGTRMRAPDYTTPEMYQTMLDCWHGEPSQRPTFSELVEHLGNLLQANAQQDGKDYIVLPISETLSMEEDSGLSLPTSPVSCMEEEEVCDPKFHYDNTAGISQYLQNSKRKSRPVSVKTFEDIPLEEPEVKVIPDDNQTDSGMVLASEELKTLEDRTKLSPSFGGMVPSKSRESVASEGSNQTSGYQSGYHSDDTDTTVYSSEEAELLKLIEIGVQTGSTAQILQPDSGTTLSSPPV
Description: In vitro VEGFR‐2 kinase inhibitory assay
for their inhibitory activity against VEGFR‐2. Human BPS bioscience® VEGFR2 (KDR) Ki‐ nase Assay Kit (Enzyme‐Linked Immunosorbent Assay) was utilized in this test. The lu‐ minescent signal from the assay is correlated with the amount of ATP present and is in‐ versely correlated with the amount of kinase activity. The compounds were diluted to 100 μM in 10% DMSO and 5 ml of the diluted solution was added to a 50 ml reaction so that the final concentration of DMSO was 1% in all of reactions. All of the enzymatic reactions were conducted at 30 °C for 40 min. The 50 μl reaction mixture contains 40 μM Tris, pH 7.4, 10 μM MgCl2, 0.1 mg/ml BSA, 0.2 mg/ml Poly (Glu, Tyr) substrate, 10 μM ATP, and VEGFR‐2. After the enzymatic reaction, 50 ml of Kinase‐GloPlus Luminescence kinase as‐ say solution (Promega) was added to each reaction and the plate was incubated for 5 min at room temperature. Luminescence signal was measured using a BioTek Synergy 2 mi‐ croplate reader. The protein kinase assays used to determine IC50 values were performed using a ADP‐GloTM assay kit from Promega, which measures the generation of ADP by the protein kinase. Generation of ADP by the protein kinase reaction leads to an increase in luminescence signal in the presence of the ADP‐GloTM assay kit. The assay was started by incubating the reaction mixture in a 96‐well plate at 30 °C for 30 min. After the 30 mi n incubation period, the assay was terminated by the addition of 25 ml of ADP‐GloTM Re‐ agent (Promega). The 96‐well plate was shaken and then incubated for 40 min at ambient temperature; 50 ml of Kinase detection reagent was added, the 96‐well reaction plate wa s then read using the ADP‐Glo Luminescences Protocol on a GloMax plate reader (Promega: Catalog #E7031). The blank control was set up which included all the assay components, except the addition of appropriate substrates (replaced with equal volume of kinase assay buffer). The corrected activity for each protein kinase target was deter‐ mined by removing the blank control value. IC50 determination for inhibitor against VEGFR‐2 was estimated by generating a graph of log inhibitor vs normalized response with variables.

Question: Which results are given for O=C1Nc2ccccc2C1=Nc1ccc(C(=O)NNC(=S)Nc2ccccc2)cc1 [Compound 17a, 2-(4-((2-Oxoindolin-3-ylidene)amino)benzoyl)-N-phenylhydrazinecarbothioamide]?
Answer: Gene Expression Fold Change (Normalized to β-Actin) Caspases-3 (caspase-3): 6.88 fold and 6.9 fold and 6.889 fold; IC50 (VEGFR-2): 78 ± 3 nM; fold more potent than sunitinib, VEGFR-2 inhibition (VEGFR-2; ratio of IC50 to sunitinib): 1.78 fold
